From US10172835B2, “Anticancer agent composition” (J-Pharma Co., Ltd., priority 2014, dated 2019)
Counter-ions that a name gives are not always drawn.

Key:
[1] = test system: HT-29 cell derived from human large intestine cancer; test: Tumor growth in nude mouse inoculated subcutaneously with HT-29 cells; type: in vivo
Description: A HT-29 cell was inoculated subcutaneously into a mouse, and the transition of the size of the tumor lump was measured with time from the day on which the tumor has grown to a certain size, when each of COM-JP and 5-FU was used alone or in combination.

[2] = test system: KO99L cells; test: Combination studies with COMPOUND-JP, WST-1 viability, Chou-Talalay combination index; type: cell-based, murine; details: 48 h, suboptimal concentrations, in combination with COMPOUND-JP
Description: Combinations were analyzed by ANOVA followed by Tukey's Multiple comparison test to determine significance between experimental groups. The synergism between drugs was analyzed using the Chou-Talalay method. […] P-value <0.05 was accepted as statistically significant (*:p<0.05; **:p<0.01; ***:p<0.001). Analyses were performed using the GraphPAd Prism 3.0 software.

[3] = test system: caspase 3; test: Western blot of caspase 3 activation and PARP cleavage in primary tPTEN−/− tumor cells (KO#732); type: cell-based, murine; details: primary KO#732 cells; COMPOUND-JP 5.0, 10.0 μM; PI-103 10.0 μM; rapamycin 10.0 nM; 2.0-18.0 h
Description: (§1) Cell extracts were prepared using a cell lysis buffer (50 mM HEPES, pH 7.4, 150 mM NaCl, 20 mM EDTA, 100 mM NaF, 10 mM Na3VO4, 0.5% nonyl phenoxypolyethoxylethanol (NP40) supplemented with a cocktail of protease inhibitors. After SDS-PAGE separation and transfer to nitrocellulose immunoblotting was performed using the following antibodies against: Akt (Cell Signaling Technologies, #9272), CHOP (#2895), cleaved caspase 3 (#9664), c-Myc (#9402), eIF2a (#9721), 4EBP1 (#9644), LC3A/B (#12741), PARP (#9542), pJnk (T183/Y185) (#9251), pSer235-236-S6RP (#4856), pSer473-Akt (#9271), pSer65-4EBP1 (#9451) and S6RP (#2217); Bax (Sigma-Aldrich, B8429); PUMA (Abcam, ab54288); Bak (Millipore, 06536); ATF4 (Santa Cruz Biotechnologies, sc200), GADD34 (sc8327), Hsp60 (sc-1722), Hsp90 (sc-13119) and XBP1 (sc-7160); ATF6 (Imgenex, IMG-273).

[4] = test system: KO99L cells; test: Annexin-V / DAPI apoptosis assay, KO99L cells; type: cell-based, murine; details: 20.0 μM
Description: Apoptosis assessment was performed by measuring phosphatidyl-serine membrane redistribution via annexin-V-FITC (Invitrogen). Cells (5.0±0.1×10^5 per well; 2.0 mL) were incubated with effectors, and re-suspended in staining solution (110 μL; Annexin-V ( 1/10) and incubated in the dark (15 min, RT). […] Basal apoptosis and necrosis were determined on control untreated cells.

[5] = test system: KO99L cells; test: Cell death by flow cytometry after DAPI staining, KO99L cells; type: cell-based, murine; details: 50.0 μM
[6] = test system: caspase 3; test: Western blot of caspase 3 activation and PARP cleavage, KO99L cells; type: cell-based, murine; details: 50.0 μM
Description: as §1

[7] = test system: CHOP; test: Western blot of CHOP protein levels, KO99L cells; type: cell-based, murine; details: 50.0 μM
Description: as §1

[8] = test system: Bcl2 family members; test: Western blot of Bcl2 family members, KO99L cells; type: cell-based, murine
Description: as §1

[9] = test system: KO99L cells; test: BrdU incorporation Elisa (proliferation) on KO99L cells; type: cell-based, murine; details: 50.0 μM, KO99L cells
Description: Two different assays were employed: i) In a 96-well plate format, cells (4.0±0.1×10^4 per well; 100 μL) were incubated with effectors (48 h, 37° C.; n=4 per experiment) and then WST-1 reagent (10 μL; Roche Diagnostics) added to each well of 96-well plates, incubated, and the formazan production was measured at 490 nm; and ii) cells (2.0±0.1×10^4 per well; 100 μL) were incubated with effectors (48 h, 37° C.; n=4 per experiment) and then bromodeoxyuridine reagent (10 μL/well; Roche Diagnostics) was added to each well and incubated (8 h, 37° C.). The cells were then fixed, denatured and incubated with anti-BrdU-conjugated with peroxidase (POD) antibody (100 μL/well). Colorimetric substrate (TMB: tetramethyl-benzidine; 100 μL/well) was added and BrdU incorporation quantified via optical density measurement (450 nm) which corresponds to DNA synthesis and proliferating cells.

[10] = test system: human Peripheral Blood Lymphocytes; test: Proliferative response of human PBL; type: cell-based; details: 1.0 μM, positive inducer of cell death

SMILES: O=c1[nH]cc(F)c(=O)[nH]1 [5-FU, 5-fluorouracil]
- combined effect with COM-JP on tumor growth ([1]; COM-JP and 5-FU in combination): additive
- increase of the tumor, single administration ([1]; compared with untreated control group): more significant decrease

SMILES: Oc1cccc(-c2nc(N3CCOCC3)c3oc4ncccc4c3n2)c1 [PI103, 3-[4-(4-Morpholinylpyrido[3′,2′:4,5]furo[3,2-d]pyrimidin-2-yl]phenol hydrochloride, reference compound]
- combination effect with COMPOUND-JP on metabolic activity/cell survival (Combination Index) [2]: less efficient
- caspase 3 processing and PARP cleavage (apoptosis) [3]: efficient cell death inducer

SMILES: CC(C)[C@H](NC(=O)c1ccc2ccccc2n1)C(=O)N[C@@H](CC(=O)O)C(=O)COc1c(F)cccc1F [QvD-OPH, reference compound]
- quantity of apoptotic cells when co-administered with COMPOUND-JP [4]: markedly decreased the quantity of apoptotic cells

SMILES: O=C(C=Cc1ccccc1)NC(NC(=S)Nc1cccc2cccnc12)C(Cl)(Cl)Cl (centres unmarked) [salubrinal, N-(2,2,2-trichloro-1-(3-(quinolin-8-yl)thioureido)ethyl)cinnamamide, reference compound]
- cell death induced via COMPOUND-JP [5]: rescue KO99L cells against cell death
- caspase 3 cleavage in presence of COMPOUND-JP [6]: decreased caspase 3 cleavage
- effect on CHOP induction by COMPOUND-JP (10.0 μM) [7]: offset CHOP induction
- COMPOUND-JP induction of Bax, Bak, PUMA and Bim in presence of salubrinal [8]: sensitive to inhibition of CHOP by salubrinal
- cell proliferation (BrdU incorporation or cell counting) in presence of COMPOUND-JP [9]: restored cell proliferation

SMILES: CN[C@@H]1C[C@H]2O[C@@](C)([C@@H]1OC)n1c3ccccc3c3c4c(c5c6ccccc6n2c5c31)C(=O)NC4 [staurosporine, reference compound]
- PBL cell proliferation [10]: strongly affected cell proliferation
